Literature values as cited in patent US20070292523A1, “Dihydropyrimidine Formulations” (priority 2004, published 2007).

Columns and labels:
cytochrome P450 = settings: nimodipine with cimetidine (Drugs Aging, 1995, 6, 229-42)
[1] = tested on: presystemic oxidative metabolism of nimodipine; settings: nimodipine and valproic acid administered in combination (Drugs Aging, 1995, 6, 229-42)

For `CN/C(=N/CCSCc1nc[nH]c1C)NC#N` [cimetidine], the bioavailability of nimodipine (cytochrome P450) is listed as “approximate doubling of the bioavailability of nimodipine”.

For `COCCOC(=O)C1=C(C)NC(C)=C(C(=O)OC(C)C)C1c1cccc([N+](=O)[O-])c1` (stereo not drawn) [nimodipine, Nimodipine], the solubility in water is listed as “practically insoluble in water”.

For `CCCC(CCC)C(=O)O` [valproic acid], the “plasma concentrations of nimodipine” value [1] is given as “increased plasma concentrations of nimodipine”.
